This is an account of results in US20220235043A1, “SUBSTITUTED SULFONAMIDE PYRROLOPYRIDINES AS JAK INHIBITORS” (ACLARIS THERAPEUTICS, INC., priority 2019, published 2022).

The target of one assay is T1, Tyk-2 (Homo sapiens, UniProt P29597).
T1 construct: purchased Thermo Fisher Scientific (SelectScreen service)
Briefly: Tyk-2 enzyme activity assay (Thermo Fisher Selectscreen, Z-lyte). The format is biochemical. Particulars: read-out: Tyk-2 Inhibition IC50. The protocol: (§1) The inhibitory potency of candidate compounds of JAK1, JAK2, and Tyk-2 was done at Thermo Fisher Scientific in their Selectscreen using a Z-lyte assay. Following are the assay details for each enzyme.
TYK2: The 2×TYK2/Tyr 03 mixture is prepared in 50 mM HEPES pH 6.5, 0.01% BRIJ-35, 10 mM MgCl2, 1 mM EGTA, 0.02% NaN3. The final 10 μL Kinase Reaction consists of 3.75-15 ng TYK2 and 2 μM Tyr 03 in 50 mM HEPES pH 7.0, 0.01% BRIJ-35, 10 mM MgCl2, 1 mM EGTA, 0.01% NaN3. After the one hour KinaseReaction incubation, 5 μL of a 1:4096 dilution of Development Reagent A is added.
(§2) Data reduction for JAK1, JAK2 and TYK2 is done the same, independent of the enzyme run. In summary, background signal is defined in the absence of enzyme and uninhibited signal is defined in the presence of vehicle (2% DMSO) alone. Compounds were evaluated in an 11 point dose-response ranging from […] to 0.34 nM. IC50 values of compounds are determined using a 4 parameter logistical fit of emission ratio as a function of the concentration of compound.

Assay [1] relates to IFNγ stimulated STAT1 phosphorylation on Tyr701 (JAK1/2). Briefly: JAK1/2 cellular target modulation: IFNγ stimulated phospho-STAT1 in human PBMC. Conditions: IFNγ 10 ng/ml, read-out: Infγ-STAT1 IC50. The format is cell-based. The text has this:
(§3) Target modulation was based upon the ability of a compound to inhibit JAK isoform specific phosphorylation of selected substrates. IL-2 stimulated STAT5 phosphorylation on Tyr694 was used to assess JAK1/3 compound selectivity. GM-CSF stimulated STAT5 phosphorylation on Tyr694 was used to assess JAK2 compound selectivity. IFNγ stimulated STAT1 phosphorylation on Tyr701 was used to assess JAK1/2 compound selectivity. IL-12 stimulated STAT4 phosphorylation on Tyr693 was used to assess JAK2/TYK2 compound selectivity. For all four assays, human PBMC from frozen stocks were thawed, pelleted, resuspended in complete media (90% RPMI, 10% heat inactivated FBS, 10 mM HEPES, 47 μM 2-ME, pen/strep) and placed in wells of a 96 well V-bottom plate at 200,000 per well in 120 μl complete media. Compounds were added as 15 μl per well of 10× working stock solutions in complete media with 1% DMSO (or medium with 1% DMSO for controls) and placed on a plate shaker in a 37° C. incubator with 5% CO2 for 1 hour with gentle shaking (setting of 3). Stimulation used the addition of soluble cytokines. For the JAK1/3 phospho-STAT5 assay, 15 μl of 10× working stock recombinant human IL-2 was added to a final concentration of 25 ng/ml. For the JAK2 phospho-STAT5 assay, 15 μl of 10× working stock recombinant human GM-CSF was added to a final concentration of 5 ng/ml. For the JAK1/2 phospho-STAT1 assay, 15 μl of 10× working stock of recombinant human IFNγ was added to a final concentration of 10 ng/ml. For the JAK2/TYK2 phospho-STAT4 assay, 15 μl of 10× working stock of recombinant human IL-12 was added to a final concentration of 1.7 ng/ml. Plates were then placed back on the plate shaker in the incubator for an additional 5, 5, 10, and 25 minutes respectively upon which the plates were removed from the incubator, sealed with a plate sealer and the cells pelleted at 400×g for 5 minutes. After pelleting, the media was removed by aspiration and the cells were lysed in assay specific cell lysis buffer. The levels of phospho-STAT5 were determined using a Phospho (Tyr694)STAT5a,b Whole Cell Lysate kit from Meso Scale Discovery. Levels of phospho-STAT1 were determined using a CST-PathScan Phospho-STAT1 (Tyr701) Sandwich ELISA kit. Levels of phospho-STAT4 were determined using a Phospho-STAT4 (Tyr693) Whole Cell Lysate kit from Meso Scale Discovery.

Another assay has as its target T2, JAK1 (Homo sapiens, UniProt P23458).
T2 construct: purchased Thermo Fisher Scientific (SelectScreen service)
Briefly: JAK1 enzyme activity assay (Thermo Fisher Selectscreen, Z-lyte). The format is biochemical. Particulars: read-out: JAK1 Inhibition IC50. The protocol: as §1
JAK1: The 2×JAK-enzyme/Tyr 06 mixture is prepared in 50 mM HEPES pH 6.5, 0.01% BRIJ-35, 10 mM MgCl2, 1 mM EGTA, 0.02% NaN3. The final 10 μL of the Kinase Reaction consists of 21.2-91.5 ng JAK1 and 2 μM Tyr 06 in 50 mM HEPES pH 7.0, 0.01% BRIJ-35, 10 mM MgCl2, 1 mM EGTA, 0.01% NaN3. After the one hour Kinase Reaction incubation, 5 μL of a 1:128 dilution of Development Reagent is added.
as §2

For assay [2], the system named is IL-12 stimulated STAT4 phosphorylation on Tyr693 (JAK2/TYK2). Briefly: JAK2/TYK2 cellular target modulation: IL-12 stimulated phospho-STAT4 in human PBMC. The format is cell-based. Particulars: IL-12 1.7 ng/ml, read-out: IL12-STAT4 IC50.
Excerpt: as §3

The subject of assay [3] is IL-2 stimulated STAT5 phosphorylation on Tyr694 (JAK1/3). The assay can be described thus: JAK1/3 cellular target modulation: IL-2 stimulated phospho-STAT5 in human PBMC. The assay is classed as cell-based. Conditions: IL-2 25 ng/ml, read-out: IL2-STAT5 IC50.
Excerpt: as §3

A further assay deals with T3, JAK2 (Homo sapiens, UniProt O60674).
T3 construct: purchased Thermo Fisher Scientific (SelectScreen service)
Briefly: JAK2 enzyme activity assay (Thermo Fisher Selectscreen, Z-lyte). The assay is classed as biochemical. Particulars: read-out: JAK2 Inhibition IC50. The protocol:
as §1
JAK2: The 2×JAK2/Tyr 06 mixture is prepared in 50 mM HEPES pH 7.5, 0.01% BRIJ-35, 10 mM MgCl2, 1 mM EGTA. The final 10 μL Kinase Reaction consists of 0.12-0.5 ng JAK2 and 2 μM Tyr 06 in 50 mM HEPES pH 7.5, 0.01% BRIJ-35, 10 mM MgCl2, 1 mM EGTA. After the one hour Kinase Reaction incubation, 5 μL of a 1:128 dilution of Development Reagent A is added.
as §2

A further assay has as its target T4, JAK3 (a.a. 781-1124) (Homo sapiens, UniProt P52333).
T4 construct: JAK3 (a.a. 781-1124, ThermoFisher); purchased ThermoFisher
Briefly: JAK3 enzyme activity assay (SRCtide phosphorylation, Caliper). The format is biochemical. Particulars: 1 uM ATP; read-out: JAK3 Inhibition IC50. As to the method: The activity of JAK3 (a.a. 781-1124, ThermoFisher) was quantified by measuring the phosphorylation of SRCtide (FAM-GEEPLYWSFPAKKK-NH2). Kinase reactions were run in a 384-well Greiner plate with 2% final DMSO concentration under the buffer conditions of 20 mM HEPES, pH 7.5, 10 mM MgCl2, 0.01% BSA, and 0.0005% Tween-20. The kinase reaction components were 2.5 nM JAK3, 1 μM SRCtide peptide and 1 uM ATP. Examples were tested in dose-response starting at […] (11 concentrations, 3-fold serial dilution, duplicate reactions). The reactions were incubated at room temperature for 40 minutes, then stopped by adding a 1:1 volume of 30 mM EDTA in 20 mM HEPES, pH 7.5 (15 mM EDTA final). After the reaction was stopped, the phosphorylated and unphosphorylated peptides were separated and quantified using a Caliper LC3000/EZ-Reader system and HTS Well Analyzer Software (Caliper, A PerkinElmer Company, Hopkinton, Mass.). GraFit (Erithacus Software Ltd., Horley, U.K.) was used to calculate inhibitor potency by fitting dose-response data to the 4-parameter logistical IC50 equation.

T4 sequence (P52333 781-1124): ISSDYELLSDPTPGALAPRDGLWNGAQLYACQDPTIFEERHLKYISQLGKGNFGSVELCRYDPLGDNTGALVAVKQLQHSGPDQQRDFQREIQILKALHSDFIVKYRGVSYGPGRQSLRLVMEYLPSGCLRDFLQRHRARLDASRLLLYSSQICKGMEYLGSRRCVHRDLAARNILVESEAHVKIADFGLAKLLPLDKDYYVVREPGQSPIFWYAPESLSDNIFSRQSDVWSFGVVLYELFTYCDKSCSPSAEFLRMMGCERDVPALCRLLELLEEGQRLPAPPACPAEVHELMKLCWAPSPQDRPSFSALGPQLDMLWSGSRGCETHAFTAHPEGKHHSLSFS
T3 sequence (O60674 whole entry): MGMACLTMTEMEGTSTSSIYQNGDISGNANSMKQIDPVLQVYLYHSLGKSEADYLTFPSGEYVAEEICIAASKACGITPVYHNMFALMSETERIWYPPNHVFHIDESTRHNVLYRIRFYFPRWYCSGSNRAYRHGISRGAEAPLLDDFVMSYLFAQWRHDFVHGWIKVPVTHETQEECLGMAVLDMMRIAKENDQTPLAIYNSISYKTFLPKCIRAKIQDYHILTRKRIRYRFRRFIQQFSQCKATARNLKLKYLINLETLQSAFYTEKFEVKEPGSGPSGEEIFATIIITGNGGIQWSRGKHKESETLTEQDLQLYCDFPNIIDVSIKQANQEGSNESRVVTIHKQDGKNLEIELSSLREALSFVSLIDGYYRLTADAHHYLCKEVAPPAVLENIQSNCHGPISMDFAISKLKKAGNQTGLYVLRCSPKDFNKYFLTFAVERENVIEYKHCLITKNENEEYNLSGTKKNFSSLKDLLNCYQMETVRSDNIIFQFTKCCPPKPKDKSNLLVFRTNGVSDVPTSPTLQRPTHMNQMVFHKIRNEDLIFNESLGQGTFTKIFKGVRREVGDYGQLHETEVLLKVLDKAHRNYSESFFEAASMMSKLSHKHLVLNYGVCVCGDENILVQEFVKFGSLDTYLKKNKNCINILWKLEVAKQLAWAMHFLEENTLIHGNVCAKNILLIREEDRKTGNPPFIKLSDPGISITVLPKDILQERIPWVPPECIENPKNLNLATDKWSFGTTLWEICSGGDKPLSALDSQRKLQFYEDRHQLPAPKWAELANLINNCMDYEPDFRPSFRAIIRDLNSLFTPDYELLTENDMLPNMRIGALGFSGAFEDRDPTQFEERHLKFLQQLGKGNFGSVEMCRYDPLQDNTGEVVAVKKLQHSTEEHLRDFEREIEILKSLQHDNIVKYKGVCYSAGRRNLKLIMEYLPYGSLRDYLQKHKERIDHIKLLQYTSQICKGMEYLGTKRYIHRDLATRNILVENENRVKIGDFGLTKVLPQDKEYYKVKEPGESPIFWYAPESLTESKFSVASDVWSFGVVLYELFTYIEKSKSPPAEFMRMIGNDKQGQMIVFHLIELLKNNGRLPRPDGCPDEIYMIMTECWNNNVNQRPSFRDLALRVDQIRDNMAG
T2 sequence (P23458 whole entry): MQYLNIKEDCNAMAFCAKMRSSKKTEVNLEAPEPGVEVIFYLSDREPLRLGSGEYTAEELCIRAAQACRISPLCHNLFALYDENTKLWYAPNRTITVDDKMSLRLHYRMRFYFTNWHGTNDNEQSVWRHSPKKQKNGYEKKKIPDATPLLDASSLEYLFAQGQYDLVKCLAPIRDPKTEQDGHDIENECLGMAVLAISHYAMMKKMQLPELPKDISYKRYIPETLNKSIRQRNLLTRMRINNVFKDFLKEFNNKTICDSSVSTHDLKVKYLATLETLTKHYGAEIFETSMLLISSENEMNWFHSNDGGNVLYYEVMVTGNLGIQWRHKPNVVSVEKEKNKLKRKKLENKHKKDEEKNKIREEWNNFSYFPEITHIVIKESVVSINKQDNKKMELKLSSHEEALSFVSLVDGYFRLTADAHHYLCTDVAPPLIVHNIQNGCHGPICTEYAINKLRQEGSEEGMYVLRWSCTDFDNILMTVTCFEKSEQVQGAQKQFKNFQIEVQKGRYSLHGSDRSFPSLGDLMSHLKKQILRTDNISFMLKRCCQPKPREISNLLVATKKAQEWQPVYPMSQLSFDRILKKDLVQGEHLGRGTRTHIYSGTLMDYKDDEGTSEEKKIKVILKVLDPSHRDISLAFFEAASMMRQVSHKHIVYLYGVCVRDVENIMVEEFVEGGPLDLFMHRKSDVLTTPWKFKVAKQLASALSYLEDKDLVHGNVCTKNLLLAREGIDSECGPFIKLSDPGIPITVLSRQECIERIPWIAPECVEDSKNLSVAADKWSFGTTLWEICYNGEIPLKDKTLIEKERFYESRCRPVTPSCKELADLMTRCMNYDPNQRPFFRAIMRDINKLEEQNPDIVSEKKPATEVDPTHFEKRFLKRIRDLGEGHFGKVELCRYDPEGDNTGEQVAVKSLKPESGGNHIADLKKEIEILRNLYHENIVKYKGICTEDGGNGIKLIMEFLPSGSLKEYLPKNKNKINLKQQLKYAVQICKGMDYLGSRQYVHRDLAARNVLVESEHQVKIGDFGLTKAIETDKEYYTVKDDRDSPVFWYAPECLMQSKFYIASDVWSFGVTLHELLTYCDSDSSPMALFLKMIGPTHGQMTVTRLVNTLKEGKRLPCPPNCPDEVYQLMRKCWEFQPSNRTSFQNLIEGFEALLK
T1 sequence (P29597 whole entry): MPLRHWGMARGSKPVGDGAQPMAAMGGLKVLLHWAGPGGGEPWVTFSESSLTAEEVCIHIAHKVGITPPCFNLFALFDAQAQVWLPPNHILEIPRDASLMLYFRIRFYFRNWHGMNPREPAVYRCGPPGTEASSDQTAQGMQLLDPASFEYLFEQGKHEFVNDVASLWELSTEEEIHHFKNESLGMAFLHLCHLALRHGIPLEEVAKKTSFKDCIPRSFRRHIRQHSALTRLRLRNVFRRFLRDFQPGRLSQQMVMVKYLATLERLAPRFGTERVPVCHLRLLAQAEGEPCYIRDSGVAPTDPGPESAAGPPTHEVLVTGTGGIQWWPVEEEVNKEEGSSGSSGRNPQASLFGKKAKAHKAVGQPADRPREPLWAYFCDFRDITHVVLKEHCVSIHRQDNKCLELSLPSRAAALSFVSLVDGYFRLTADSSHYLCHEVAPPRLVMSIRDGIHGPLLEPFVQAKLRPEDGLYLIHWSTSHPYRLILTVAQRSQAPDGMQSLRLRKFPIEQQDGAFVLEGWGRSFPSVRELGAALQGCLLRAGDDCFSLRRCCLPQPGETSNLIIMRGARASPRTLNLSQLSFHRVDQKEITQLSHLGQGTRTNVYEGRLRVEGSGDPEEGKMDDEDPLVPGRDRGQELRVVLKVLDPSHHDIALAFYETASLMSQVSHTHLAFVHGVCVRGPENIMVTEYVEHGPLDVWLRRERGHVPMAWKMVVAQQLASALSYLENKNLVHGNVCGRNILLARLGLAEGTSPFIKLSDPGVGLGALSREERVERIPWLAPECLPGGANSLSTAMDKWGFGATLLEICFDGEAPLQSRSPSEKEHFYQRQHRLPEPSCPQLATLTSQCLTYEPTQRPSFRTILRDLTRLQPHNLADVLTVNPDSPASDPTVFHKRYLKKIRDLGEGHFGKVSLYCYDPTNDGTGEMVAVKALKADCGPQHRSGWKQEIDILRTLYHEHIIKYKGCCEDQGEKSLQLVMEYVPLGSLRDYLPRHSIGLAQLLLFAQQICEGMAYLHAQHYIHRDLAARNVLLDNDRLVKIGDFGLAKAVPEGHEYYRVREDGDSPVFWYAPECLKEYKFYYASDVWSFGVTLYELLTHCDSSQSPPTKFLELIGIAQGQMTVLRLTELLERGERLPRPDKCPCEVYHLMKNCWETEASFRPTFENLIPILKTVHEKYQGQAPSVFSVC

For the compound `N#Cc1cccc(S(=O)(=O)N[C@H]2C[C@@H](Nc3c(-c4ncco4)cnc4[nH]ccc34)C2)c1` [Example 7, 3-cyano-N-((1s,3s)-3-((5-(oxazol-2-yl)-1H-pyrrolo[2,3-b]pyridin-4-yl)amino)cyclobutyl)benzenesulfonamide], the half-maximal inhibitory concentration (IC50) is 10 to 100 nM on Tyk-2; 100 to 1000 nM in assay [1]; at most 10 nM on JAK1; above 1000 nM in assay [2]; 100 to 1000 nM in assay [3]; at most 10 nM at JAK2. In addition, the IC50 at JAK3 (a.a. 781-1124) was 10 to 100 nM.
In the case of `Cc1cnc(-c2cnc3[nH]ccc3c2N[C@H]2C[C@@H](NS(=O)(=O)c3cccc(C#N)c3)C2)s1` [Example 74, 3-cyano-N-((1s,3s)-3-((5-(5-methylthiazol-2-yl)-1H-pyrrolo[2,3-b]pyridin-4-yl)amino)cyclobutyl)benzenesulfonamide], the IC50 at Tyk-2 was 10 to 100 nM; in assay [1], 100 to 1000 nM; on JAK1, at most 10 nM; in assay [2], 100 to 1000 nM; in assay [3], at most 100 nM; at JAK2, 10 to 100 nM. In addition, the IC50 on JAK3 (a.a. 781-1124) is at most 10 nM.
For `CNC(=O)c1csc(-c2cnc3[nH]ccc3c2N[C@H]2C[C@@H](NS(=O)(=O)c3cccc(C#N)c3)C2)n1` [Example 21, 2-(4-(((1s,3s)-3-((3-cyanophenyl)sulfonamido)cyclobutyl)amino)-1H-pyrrolo[2,3-b]pyridin-5-yl)-N-methylthiazole-4-carboxamide], the IC50 on Tyk-2 was 10 to 100 nM; in assay [1], 100 to 1000 nM; on JAK1 it was at most 10 nM; in assay [2], above 1000 nM; in assay [3], 100 to 1000 nM; on JAK2, at most 10 nM. For the same compound, the IC50 on JAK3 (a.a. 781-1124) lay in the range of 10 to 100 nM.
Regarding `CNC(=O)c1ccnc(-c2cnc3[nH]ccc3c2N[C@H]2C[C@@H](NS(=O)(=O)c3cccc(C#N)c3)C2)c1` [Example 66, 2-(4-(((1s,3s)-3-((3-cyanophenyl)sulfonamido)cyclobutyl)amino)-1H-pyrrolo[2,3-b]pyridin-5-yl)-N-methylisonicotinamide], the IC50 on Tyk-2 was 10 to 100 nM; in assay [1] it was above 1000 nM; at JAK1 it was at most 10 nM; in assay [2] it was above 1000 nM; in assay [3], 100 to 1000 nM; at JAK2, 10 to 100 nM. For the same compound, the IC50 at JAK3 (a.a. 781-1124) lay in the range of 100 to 1000 nM.
Consider `CCCS(=O)(=O)N[C@H]1C[C@@H](Nc2c(-c3nc(C(=O)NC)co3)cnc3[nH]ccc23)C1` [Example 71, N-methyl-2-(4-(((1s,3s)-3-(propylsulfonamido)cyclobutyl)amino)-1H-pyrrolo[2,3-b]pyridin-5-yl)oxazole-4-carboxamide], for which the IC50 on Tyk-2 was 100 to 1000 nM; in assay [1] it was 100 to 1000 nM; on JAK1 it was at most 10 nM; in assay [2], above 1000 nM; in assay [3], 100 to 1000 nM; on JAK2 it was 10 to 100 nM. Further, the IC50 at JAK3 (a.a. 781-1124) was in the range of 10 to 100 nM.
As to `Cc1csc(-c2cnc3[nH]ccc3c2N[C@H]2C[C@@H](NS(=O)(=O)c3cccc(C#N)c3)C2)n1` [Example 73, 3-cyano-N-((1s,3s)-3-((5-(4-methylthiazol-2-yl)-1H-pyrrolo[2,3-b]pyridin-4-yl)amino)cyclobutyl)benzenesulfonamide], the IC50 is 10 to 100 nM at Tyk-2; 100 to 1000 nM in assay [1]; at most 10 nM on JAK1; 100 to 1000 nM in assay [2]; 100 to 1000 nM in assay [3]; at most 10 nM on JAK2. Besides, the IC50 at JAK3 (a.a. 781-1124) was at most 10 nM.
On to `N#Cc1cccc(S(=O)(=O)N[C@H]2C[C@@H](Nc3c(-c4nccs4)cnc4[nH]ccc34)C2)c1` [Example 69, 3-cyano-N-((1s,3s)-3-((5-(thiazol-2-yl)-1H-pyrrolo[2,3-b]pyridin-4-yl)amino)cyclobutyl)benzenesulfonamide], for which the IC50 at Tyk-2 was at most 10 nM; in assay [1] it was 100 to 1000 nM; on JAK1, at most 10 nM; in assay [2] it was 100 to 1000 nM; in assay [3], at most 100 nM; on JAK2, at most 10 nM. For the same compound, the IC50 on JAK3 (a.a. 781-1124) was at most 10 nM.
With `CCCS(=O)(=O)N[C@H]1C[C@@H](Nc2c(-c3nccs3)cnc3[nH]ccc23)C1` [Example 70, N-((1s,3s)-3-((5-(thiazol-2-yl)-1H-pyrrolo[2,3-b]pyridin-4-yl)amino)cyclobutyl)propane-1-sulfonamide], the IC50 is 10 to 100 nM on Tyk-2; 100 to 1000 nM in assay [1]; at most 10 nM at JAK1; above 1000 nM in assay [2]; at most 100 nM in assay [3]; 10 to 100 nM on JAK2. Moreover, the half-inhibitory concentration (IC50) at JAK3 (a.a. 781-1124) was 10 to 100 nM.
Regarding `N#Cc1cccc(S(=O)(=O)N[C@H]2C[C@@H](Nc3c(-c4ccncn4)cnc4[nH]ccc34)C2)c1` [Example 64, 3-cyano-N-((1s,3s)-3-((5-(pyrimidin-4-yl)-1H-pyrrolo[2,3-b]pyridin-4-yl)amino)cyclobutyl)benzenesulfonamide], the IC50 was at most 10 nM on Tyk-2; 100 to 1000 nM in assay [1]; at most 10 nM at JAK1; above 1000 nM in assay [2]; at most 100 nM in assay [3]; at most 10 nM on JAK2. Also, the IC50 at JAK3 (a.a. 781-1124) is at most 10 nM.

The term IC50 denotes the midpoint of a concentration-inhibition curve.
